In article PMC6366974, “The curcumin analog EF24 is a novel senolytic agent” (Aging (Albany NY), 2019):

How the values were obtained:
[1] = test system: WI-38 IR-induced senescent cells (IR-SCs); test: Cell viability assay (flow cytometry, PI); format: cell-based, human; details: WI-38, 72 h; for EC50: Homo sapiens
Experimental: (§1) Human WI-38 fibroblasts (WI-38, Cat. No. CCL-75), human IMR-90 fibroblasts (IMR-90, Cat. No. CCL-186), human umbilical vein endothelial cells (HUVEC, Cat. No. CRL-1730), human renal epithelial cells (HREC, Cat. No. PCS-400-012) and human pre-adipocytes (Cat. No. PCS-210-010) were newly purchased from the American Type Culture Collection (ATCC, Manassas, VA, USA). WI-38 and IMR-90 cells were cultured in complete Dulbecco’s modified Eagle medium (DMEM, Cat. No. 12430054, Thermo Fisher Scientific, Waltham, MA, USA) supplemented with 10% heat-inactivated fetal bovine serum (FBS, Cat. No. S11150H, Atlanta Biologicals, Flowery Branch, GA, USA), 100 U/mL penicillin and 100 µg/mL streptomycin (Pen Strep, Cat. No. 15140122, Thermo Fisher Scientific, Waltham, MA, USA) in a humidified incubator at 37°C and 5% CO2. HUVEC were cultured in EGM-2 BulletKit (Cat. No. CC-3162, Lonza, Basel, Switzerland) containing basal medium supplemented with growth factors, cytokines and other supplements according to the manufacturer’s protocol. HREC were cultured in renal epithelial cell basal medium (Cat. No. PCS-400-030, ATCC, Manassas, VA, USA) supplemented with renal epithelial cell growth kit (Cat. No. PCS400040, ATCC, Manassas, VA, USA). Human pre-adipocytes were cultured in fibroblast basal medium (Cat. No. PCS-201-030, ATCC, Manassas, VA, USA) supplemented with fibroblast growth kit-low serum (Cat. No. PCS201041, ATCC, Manassas, VA, USA). EF24 (Cat. No. E8409) and HO-3867 (Cat. No. S7501) were purchased from Sigma-Aldrich (St. Louis, MO, USA) and Selleckchem (Houston, TX, USA), respectively. DIMC (Cat. No. 10009986) and 2-HBA (Cat. No. 11879) were both purchased from Cayman Chemical (Ann Arbor, MI, USA).
(§2) Three different methods were used for the induction of SCs, including replicative exhaustion, ionizing radiation and ectopic Ras expression as previously described. Briefly, low-passage WI-38 cells (< 25 passages), IMR-90 cells (< 25 passages), HUVEC (< 10 passages), HREC (< 10 passages) and pre-adipocytes (< 4 passages) were used as NCs or for the induction of senescence. To induce replicative senescence (Rep-SCs), WI-38 and IMR-90 fibroblasts, HUVEC, HREC and pre-adipocytes were subcultured until they stopped to divide and became permanently growth arrested senescence after 38 passages (WI-38), 38 passages (IMR-90), 22 passages (HUVEC), 30 passages (HREC) and 10 passages (pre-adipocytes), respectively. To induce SCs by ionizing radiation (IR-SCs) and ectopic expression of Ras (Ras-SCs), WI-38 NCs were treated as previously described.
(§3) Number of viable cells were quantified using flow cytometry as previously described with slight modifications. Specifically, NCs and SCs were incubated with vehicle (0.1% DMSO) or a test compound at indicated concentrations for 72 h. Following dissociation with 0.25% Trypsin-EDTA (Cat. No. 25200056, Thermo Fisher Scientific, Waltham, MA, USA) at 37°C for 5 min, the cells were harvested in 100 µl pre-cooled phosphate buffered saline (PBS, Cat. No. 20012027, Thermo Fisher Scientific, Waltham, MA, USA) containing 2% FBS and 100 ng/mL propidium iodide (PI, P4170, Sigma-Aldrich, St. Louis, MO, USA) and analyzed using flow cytometry (LSR II, BD Biosciences, San Jose, CA, USA). Percentage of viable cells were determined by counting the number of PI negative cells (viable cells) and then calculated as a ratio of control cells treated with vehicle. In addition, dose-response curves were generated for each compound, and the concentration for 50% of maximal effect (EC50 values) was calculated using GraphPad Prism 6.

[2] = test system: WI-38 Ras-induced senescent cells (Ras-SCs); test: Cell viability assay (flow cytometry, PI); format: cell-based, human; details: 72 h
Experimental: as §1, §2, §3

[3] = test system: WI-38 non-senescent cells (NCs); test: Cell viability assay (flow cytometry, PI); format: cell-based, human; details: for EC50: Homo sapiens, WI-38, 72 h
Experimental: as §1, §2, §3

HREC NCs = test: Cell viability assay (flow cytometry, PI); format: cell-based; details: Homo sapiens, 72 h
Experimental: as §1, §2, §3

HREC Rep-SCs = test: Cell viability assay (flow cytometry, PI); format: cell-based; details: Homo sapiens, 72 h
Experimental: as §1, §2, §3

HUVEC NCs = test: Cell viability assay (flow cytometry, PI); format: cell-based; details: Homo sapiens, 72 h
Experimental: as §1, §2, §3

HUVEC Rep-SCs = test: Cell viability assay (flow cytometry, PI); format: cell-based; details: Homo sapiens, 72 h
Experimental: as §1, §2, §3

IMR-90 fibroblasts NCs = test: Cell viability assay (flow cytometry, PI); format: cell-based; details: Homo sapiens, IMR-90, 72 h
Experimental: as §1, §2, §3

[4] = test system: IMR-90 fibroblasts Rep-SCs; test: Cell viability assay (flow cytometry, PI); format: cell-based; details: Homo sapiens, IMR-90, 72 h
Experimental: as §1, §2, §3

[5] = test system: WI-38 replication-exhausted senescent cells (Rep-SCs); test: Cell viability assay (flow cytometry, PI); format: cell-based; details: Homo sapiens; WI-38, 72 h, Table 2
Experimental: as §1, §2, §3

pre-adipocytes NCs = test: Cell viability assay (flow cytometry, PI); format: cell-based; details: Homo sapiens; Pre-adipocyte, 72 h
Experimental: as §1, §2, §3

pre-adipocytes Rep-SCs = test: Cell viability assay (flow cytometry, PI); format: cell-based; details: Homo sapiens; Pre-adipocyte, 72 h
Experimental: as §1, §2, §3

WI-38 IR-SCs = test: Apoptosis analysis (Annexin-V/PI flow cytometry); format: cell-based, human; details: 2 µM, 72 h
Experimental: (§4) WI-38 NCs and SCs were treated with vehicle or 10 µM Q-VD-OPh (QVD, Cat. No. S7311, Selleckchem, Houston, TX, USA) for 4 h prior to the addition of vehicle or 2 µM EF24 for 72 h. The suspending cells were first harvested from the culture and then pooled with the adherent cells detached by 0.25% Trypsin-EDTA at 37°C for 5 min in 12 × 75 mm polystyrene round-bottom tubes (Cat. No. 352058, Falcon, Corning, NY, USA) containing complete DMEM medium. The cells were stained with Alexa Fluor 647-Annexin V (1: 50, Cat. No. 640912, BioLegend, San Diego, CA, USA) and PI (10 µg/mL, Cat. No. 421301, BioLegend, San Diego, CA, USA) at room temperature for 30 min. The stained cells were analyzed using a BD LSR II flow cytometer.

WI-38 NCs = test: Apoptosis analysis (Annexin-V/PI flow cytometry); format: cell-based, human; details: 2 µM, 72 h
Experimental: as §4

O=C1/C(=C/c2ccccc2F)CNC/C1=C\c1ccccc1F [EF24]
EC50 ([1]; Table 2): 1.74 µM
EC50 ([1]; WI-38 IR-SCs, 72 h, Table 1 screen of curcumin analogs): 1.62 µM
selective toxicity against IR-SCs versus NCs (viability) [1]: lesser toxicities to NCs
sensitivity of WI-38 Ras-SCs compared with Rep-SCs and IR-SCs [2]: highest sensitivity
EC50 ([3]; Table 2): 4.32 µM
EC50 ([3]; WI-38 NCs, 72 h, Table 1 screen of curcumin analogs): 4.69 µM
effect on the cell viability of WI-38 NCs ([3]; below 4 μM, 72 h): minimal effect
EC50 (HREC NCs): 3.25 µM
EC50 (HREC Rep-SCs): 0.6 µM
EC50 (HUVEC NCs): 1.39 µM
EC50 (HUVEC Rep-SCs): 0.77 µM
EC50 (IMR-90 fibroblasts NCs): 10.9 µM
EC50 [4]: 0.33 µM
EC50 [5]: 1.26 µM
EC50 (pre-adipocytes NCs): 8.92 µM
EC50 (pre-adipocytes Rep-SCs): 4.6 µM
number of PI positive cells representing necrotic cells in IR-SCs (WI-38 IR-SCs): not any significant changes
number and percentage of Annexin-V positive apoptotic cells in IR-SCs (WI-38 IR-SCs; compared to vehicle): significantly increased
induction of apoptosis in NCs (WI-38 NCs): did not induce apoptosis
